Values of other authors in US20050064031A1, “Combination contraceptive, kits that contain the latter, and a method that uses the latter” (priority 1995, published 2005).

Tested on: breast tumors
Conditions: rats treated before the administration of a carcinogen

CN(C)c1ccc([C@H]2C[C@]3(C)[C@@H](CC[C@]3(O)CCCO)[C@@H]3CCC4=CC(=O)CCC4=C32)cc1 [onapristone]
development of breast tumors: can be inhibited
